PMC4678575 (MedChemComm, 2013)

Key:
[1] = target: first bromodomain of BRD4 (BRD4(1)) (Homo sapiens, UniProt O60885); test: AlphaScreen peptide displacement assay, BRD4; assay type: binding; settings: for inhibition of BRD4(1), in words: AlphaScreen using isolated bromodomains
CBP bromodomain = CBP bromodomain (Homo sapiens, UniProt Q92793); test: AlphaScreen peptide displacement assay, CBP; assay type: binding; settings: for affinity for the CBP bromodomain, in words: AlphaScreen using isolated bromodomains
Sequence of CBP bromodomain (Q92793 1085-1192 limits assumed): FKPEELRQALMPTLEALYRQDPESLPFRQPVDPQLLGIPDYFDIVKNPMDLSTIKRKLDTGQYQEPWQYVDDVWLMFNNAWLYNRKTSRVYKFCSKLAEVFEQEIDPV

[2] = Re-examination of stock solutions by LCMS; assay type: physicochemical; settings: mass loss of 18 amu, likely dehydration to indene 16
CBP = CBP (Homo sapiens, UniProt Q92793); test: DSF thermal shift, CBP; assay type: binding
Sequence of CBP (Q92793 1085-1192 limits assumed): as above

Cc1noc(C)c1-c1ccc2cc[nH]c2c1 [Compound 7]
inhibition of BRD4(1), in words [1]: modest inhibitors
affinity for the CBP bromodomain, in words (CBP bromodomain): no affinity

Cc1noc(C)c1-c1ccc2c(c1)C(OCc1ccccc1)CC2 (stereo not drawn) [Compound 9]
IC50 (CBP bromodomain): > 10 µM

Cc1noc(C)c1-c1ccc2c(c1)C(=O)CC2 [Compound 6]
inhibition of BRD4(1), in words [1]: modest inhibitors
affinity for the CBP bromodomain, in words (CBP bromodomain): no affinity

Cc1noc(C)c1-c1ccc2c(c1)C(O)(c1ccccc1)CC2 (stereo not drawn) [Compound 15]
chemical stability of stock solutions, in words [2]: decomposition of the parent compound

Cc1noc(C)c1-c1ccc2ncn(Cc3ccc(C#N)cc3)c2c1 [Compound 28a]
selectivity for BRD4(1) over CBP ([1]; AlphaScreen BRD4(1) vs CBP): at least 100 fold
stabilization of CBP, in words (CBP): only minimal stabilization

Cc1noc(C)c1-c1ccc2nc[nH]c2c1 [Compound 8]
affinity/potency for BRD4(1) compared with CBP, in words ([1]; AlphaScreen): comparable affinity for both bromodomains
